{"source": "patent EP4678634A1", "about": "“ANDROGEN RECEPTOR MODULATORS AND USES THEREOF” (Haihe Biopharma Co., Ltd., priority 2023, dated 2024)"}
{"target": "T1, Androgen receptor (AR) (Homo sapiens, UniProt P10275)", "T1 construct": "expressed in transfected cells; host or cells: HEK293T (AR+ARE/Luc)", "T1 sequence (P10275 1-920)": "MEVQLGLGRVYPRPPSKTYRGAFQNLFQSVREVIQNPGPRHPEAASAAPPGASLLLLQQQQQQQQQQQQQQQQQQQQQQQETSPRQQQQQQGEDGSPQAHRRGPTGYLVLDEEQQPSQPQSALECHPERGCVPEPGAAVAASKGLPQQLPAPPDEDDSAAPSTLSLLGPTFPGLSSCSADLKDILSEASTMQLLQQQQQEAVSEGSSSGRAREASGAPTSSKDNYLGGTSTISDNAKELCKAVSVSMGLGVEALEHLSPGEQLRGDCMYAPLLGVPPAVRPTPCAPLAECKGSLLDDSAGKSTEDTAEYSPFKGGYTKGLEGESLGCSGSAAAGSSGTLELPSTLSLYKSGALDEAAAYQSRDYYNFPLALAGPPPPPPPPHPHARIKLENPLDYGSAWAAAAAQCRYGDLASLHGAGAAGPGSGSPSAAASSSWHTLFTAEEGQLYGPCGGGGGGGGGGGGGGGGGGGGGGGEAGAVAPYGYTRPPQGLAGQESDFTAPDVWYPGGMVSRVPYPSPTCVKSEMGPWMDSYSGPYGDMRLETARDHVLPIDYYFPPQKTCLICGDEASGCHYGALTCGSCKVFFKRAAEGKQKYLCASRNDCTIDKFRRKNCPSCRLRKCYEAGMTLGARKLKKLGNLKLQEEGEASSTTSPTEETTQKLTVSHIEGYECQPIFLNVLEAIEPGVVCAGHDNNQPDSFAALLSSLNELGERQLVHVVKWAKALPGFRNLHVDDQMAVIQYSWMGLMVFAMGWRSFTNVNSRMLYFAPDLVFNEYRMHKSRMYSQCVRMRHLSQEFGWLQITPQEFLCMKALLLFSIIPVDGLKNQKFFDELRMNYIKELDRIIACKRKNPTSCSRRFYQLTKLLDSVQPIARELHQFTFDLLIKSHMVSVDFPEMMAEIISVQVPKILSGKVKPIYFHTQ", "test": "Androgen receptor (AR) reporter gene assay (luciferase)", "type": "cell-based", "settings": "AR+ARE/Luc HEK293T cells, stimulated with 11-KDHT, 24h incubation, Bright-Lite luminescence; read-out: HEK293 Luc IC50", "description": "Androgen receptor (AR) reporter gene assay\nExperimental reagents: 11-Ketodihydrotestosterone (11-KDHT) was purchased from MCE (cat.HY-135794); Enzalutamide (MDV3100) was purchased from Selleck (cat.S1250); Bright-Lite Luciferase Assay kit was purchased from Vazyme (cat.DD1204-01);\n• 1. dissolve the described compounds in 100% DMSO at a final concentration of 10 mM. 100 nL each of 400X compound to be tested and 400X 11-KDHT (40 nM) were added to a 384-well assay plate with Echo, followed by 20 µL of complete medium, and centrifuged at 1000 rpm for 1 min, and oscillated for 20-30 min at room temperature. • 2. 20 µL of AR+ARE/Luc HEK293T cells (10,000 cells/well) were inoculated into the assay plate containing the compounds and 11-KDHT, and centrifuged at 1000 rpm for 1 min. The assay plate was incubated in a 37 °C CO2 incubator for 24h. • 3. 40 µL of Bright-Lite assay reagent was transferred to each well of the assay plate, centrifuged at 1000 rpm for 1 min, and shaken for 2 min at room temperature protected from light. Luminescence values (RLU) were measured using Envision. Based on the results, the IC50 values of the compounds described were calculated. Table 1 HEK293-Luc% inhibition IC50 of representative compounds", "units": {"IC50": "nM"}}
{"smiles": "Cn1cc2c(n1)CN(C1CCCc3c1cc(C#N)c(OCCCl)c3Cl)C2", "note": "(stereo not drawn) [HANT-950, 4-Chloro-3-(2-chloroethoxy)-8-(2-methyl-2,6-dihydropyrrolo[3,4-c]pyrazol-5(4H)-yl)-5,6,7,8-t etrahydronaphthalene-2-carbonitrile]", "IC50": "1000 to 2000"}
{"smiles": "N#Cc1cc2c(c(Cl)c1OCCCl)CCCC2c1ccc(N)nc1", "note": "(stereo not drawn) [HANT-203]", "IC50": "1 to 500"}
{"smiles": "ClCCOc1c(Cl)cc2c(c1Cl)CCCC2c1ccc2[nH]ncc2c1", "note": "(stereo not drawn) [HANT-100, 5-(5,7-dichloro-6-(2-chloroethoxy)-1,2,3,4-tetrahydronaphthalen-1-yl)-1H-indazole]", "IC50": "1 to 500"}
{"smiles": "Cn1ccc(NC2CCCc3c2cc(C#N)c(OCCCl)c3Cl)cc1=O", "note": "(stereo not drawn) [HANT-261]", "IC50": "500 to 1000"}
{"smiles": "N#Cc1cc2c(c(Cl)c1OCCCl)CCCC2Nc1cccc2[nH]ncc12", "note": "(stereo not drawn) [HANT-173]", "IC50": "1 to 500"}
{"smiles": "CN1CCc2c(cc(Cl)c(OCCCl)c2Cl)C1c1ccc2[nH]ncc2c1", "note": "(racemic) [HANT-146, 5,7-dichloro-6-(2-chloroethoxy)-1-(1H-indazol-5-yl)-2-methyl-1,2,3,4-tetrahydroisoquinoline]", "IC50": "1 to 500"}
{"smiles": "CC(=O)Nc1ccc(C2CCCc3c2cc(C#N)c(OCCCl)c3Cl)cn1", "note": "(stereo not drawn) [HANT-205]", "IC50": "1 to 500"}
{"smiles": "N#Cc1cc2c(c(Cl)c1OCCCl)CCCC2c1ccc2c(c1)C(=O)NC2", "note": "(stereo not drawn) [HANT-948]", "IC50": "500 to 1000"}
{"smiles": "CNC(=O)c1n[nH]c2ccc(C3CCCc4c3cc(Cl)c(OCCCl)c4Cl)cc12", "note": "(stereo not drawn) [HANT-132, 5-(5,7-dichloro-6-(2-chloroethoxy)-1,2,3,4-tetrahydronaphthalen-1-yl)-N-methyl-1H-indazole-3-carboxamide]", "IC50": "> 2000"}
{"smiles": "N#Cc1cc2c(c(Cl)c1OCCCl)CCCC2Nc1cc2cn[nH]c2cn1", "note": "(stereo not drawn) [HANT-224]", "IC50": "1 to 500"}
{"smiles": "N#Cc1cc2c(c(Cl)c1OCCCl)CCCC2NC(=O)c1cccc(Cl)c1", "note": "(stereo not drawn) [HANT-233]", "IC50": "1 to 500"}
{"smiles": "N#Cc1cc2c(c(Cl)c1OCCCl)CCCC2c1cncnc1", "note": "(stereo not drawn) [HANT-246]", "IC50": "1 to 500"}
{"smiles": "CCCOc1c(C#N)cc2c(c1Cl)CCCC2c1cnc2[nH]ncc2c1", "note": "(stereo not drawn) [HANT-196, 4-chloro-3-propoxy-8-(1H-pyrazolo[3,4-b]pyridin-5-yl)-5,6,7,8-tetrahydronaphthalene-2-carbo nitrile]", "IC50": "1 to 500"}
{"smiles": "CNC(=O)Oc1ccc(C2CCCc3c2cc(C#N)c(OCCCl)c3Cl)cc1", "note": "(stereo not drawn) [HANT-206, 4-(5-chloro-6-(2-chloroethoxy)-7-cyano-1,2,3,4-tetrahydronaphthalen-1-yl)phenyl methylcarbamate]", "IC50": "1 to 500"}
{"smiles": "N#Cc1cc2c(c(Cl)c1OCCCl)CCCC2NC(=O)c1ccccc1", "note": "(stereo not drawn) [HANT-212]", "IC50": "1 to 500"}
{"smiles": "ClCCOc1c(Cl)cc2c(c1Cl)CCCC2N1CCc2[nH]ncc2C1", "note": "(stereo not drawn) [HANT-125]", "IC50": "1 to 500"}
{"smiles": "Nc1n[nH]c2ccc(C3CCCc4c3cc(Cl)c(OCCCl)c4Cl)cc12", "note": "(stereo not drawn) [HANT-133, 5-(5,7-dichloro-6-(2-chloroethoxy)-1,2,3,4-tetrahydronaphthalen-1-yl)-1H-indazol-3-amine]", "IC50": "1000 to 2000"}
{"smiles": "N#Cc1cc2c(c(Cl)c1OCCCl)CCCC2Nc1ccc2[nH]ncc2c1", "note": "(stereo not drawn) [HANT-225, 8-((1H-indazol-5-yl)amino)-4-chloro-3-(2-chloroethoxy)-5,6,7,8-tetrahydronaphthalene-2-carb onitrile]", "IC50": "1 to 500"}
{"smiles": "Oc1ccc(C2CCCc3c2cc(Cl)c(OCCCl)c3Cl)nc1", "note": "(stereo not drawn) [HANT-102, 6-(5,7-dichloro-6-(2-chloroethoxy)-1,2,3,4-tetrahydronaphthalen-1-yl)pyridin-3-ol]", "IC50": "500 to 1000"}
{"smiles": "COc1ccc(C2CCCc3c2cc(C#N)c(OCCCl)c3Cl)cc1", "note": "(stereo not drawn) [HANT-334]", "IC50": "1 to 500"}
{"smiles": "N#Cc1cc2c(c(Cl)c1OCCCl)CCCC2NC(=O)C1CCCCC1", "note": "(stereo not drawn) [HANT-209]", "IC50": "500 to 1000"}
{"smiles": "N#Cc1cc2c(c(Cl)c1OCCCl)CCCC2c1cnc(N)nc1", "note": "(racemic) [HANT-204]", "IC50": "1 to 500"}
{"smiles": "CCCOc1c(C#N)cc2c(c1Cl)CCCC2Nc1ccc2[nH]ncc2c1", "note": "(stereo not drawn) [HANT-268, 8-((1H-indazol-5-yl)amino)-4-chloro-3-propoxy-5,6,7,8-tetrahydronaphthalene-2-carbonitrile]", "IC50": "1 to 500"}
{"smiles": "N#Cc1cc2c(c(Cl)c1OCCCl)CCCC2Nc1ccc(N)nc1", "note": "(stereo not drawn) [HANT-240, 8-((6-aminopyridin-3-yl)amino)-4-chloro-3-(2-chloroethoxy)-5,6,7,8-tetrahydronaphthalene-2-c arbonitrile]", "IC50": "500 to 1000"}
{"smiles": "N#Cc1cc2c(c(Cl)c1OCCCl)CCCC2NC1CCCOC1", "note": "(stereo not drawn) [HANT-264]", "IC50": "> 2000"}
{"smiles": "N#Cc1cc2c(c(Cl)c1OCCCl)CCCC2c1ccc2oc(=O)[nH]c2c1", "note": "(stereo not drawn) [HANT-208]", "IC50": "1 to 500"}
{"smiles": "N#Cc1cc2c(c(Cl)c1OCCCl)CCCC2c1cncc(N)c1", "note": "(stereo not drawn) [HANT-256]", "IC50": "1000 to 2000"}
{"smiles": "N#Cc1cc2c(c(Cl)c1OCCCl)CCCC2Nc1ccc2cn[nH]c2c1", "note": "(stereo not drawn) [HANT-229, 8-((1H-indazol-6-yl)amino)-4-chloro-3-(2-chloroethoxy)-5,6,7,8-tetrahydronaphthalene-2-carb onitrile]", "IC50": "1 to 500"}
{"smiles": "Cn1ncc2cc(C3CCCc4c3cc(Cl)c(OCCCl)c4Cl)ccc21", "note": "(stereo not drawn) [HANT-131]", "IC50": "> 2000"}
{"smiles": "N#Cc1cc2c(c(Cl)c1OCCCl)CCCC2NC(=O)c1cn[nH]c1", "note": "(stereo not drawn) [HANT-187]", "IC50": "1 to 500"}
{"smiles": "N#Cc1cc2c(c(Cl)c1OCCCl)CCCC2c1cnc(NCCO)nc1", "note": "(stereo not drawn) [HANT-248, 4-chloro-3-(2-chloroethoxy)-8-(2-((2-hydroxyethyl)amino)pyrimidin-5-yl)-5,6,7,8-tetrahydrona phthalene-2-carbonitrile]", "IC50": "1 to 500"}
{"smiles": "CCOc1c(C#N)cc2c(c1Cl)CCCC2Nc1ccc2[nH]ncc2c1", "note": "(stereo not drawn) [HANT-269, 8-((1H-indazol-5-yl)amino)-4-chloro-3-ethoxy-5,6,7,8-tetrahydronaphthalene-2-carbonitrile]", "IC50": "1 to 500"}
{"smiles": "COc1ccc(NC2CCCc3c2cc(C#N)c(OCCCl)c3Cl)cn1", "note": "(stereo not drawn) [HANT-241]", "IC50": "1 to 500"}
{"smiles": "N#Cc1cc2c(c(Cl)c1OCCCl)CCCC2c1cnc2[nH]c(=O)oc2c1", "note": "(stereo not drawn) [HANT-207, 4-chloro-3-(2-chloroethoxy)-8-(2-oxo-2,3-dihydrooxazolo[4,5-b]pyridin-6-yl)-5,6,7,8-tetrahydr onaphthalene-2-carbonitrile]", "IC50": "500 to 1000"}
{"smiles": "Cn1c(=O)[nH]c2ccc(C3CCCc4c3cc(Cl)c(OCCCl)c4Cl)cc21", "note": "(stereo not drawn) [HANT-117]", "IC50": "1000 to 2000"}
{"smiles": "N#Cc1cc2c(c(Cl)c1OCCCl)CCCC2Nc1ccncc1", "note": "(stereo not drawn) [HANT-228]", "IC50": "> 2000"}
{"smiles": "N#Cc1cc2c(c(Cl)c1OCCCl)CCCC2c1ccc2[nH]ncc2c1", "note": "(stereo not drawn) [HANT-144B, 4-chloro-3-(2-chloroethoxy)-8-(1H-indazol-5-yl)-5,6,7,8-tetrahydronaphthalene-2-carbonitrile]", "IC50": "1 to 500"}
{"smiles": "N#Cc1cc2c(c(Cl)c1OCCCl)CCCC2NC(=O)c1cccnc1", "note": "(stereo not drawn) [HANT-213]", "IC50": "1000 to 2000"}
{"smiles": "ClCCOc1c(Cl)cc2c(c1Cl)CCCC2c1ccc2cn[nH]c2c1", "note": "(stereo not drawn) [HANT-134]", "IC50": "1 to 500"}
{"smiles": "N#Cc1cc2c(c(Cl)c1OCCCl)CCCC2Nc1ccc(OCCO)nc1", "note": "(stereo not drawn) [HANT-122]", "IC50": "1 to 500"}
{"smiles": "CNC(=O)c1ccc(NC2CCCc3c2cc(C#N)c(OCCCl)c3Cl)cn1", "note": "(stereo not drawn) [HANT-263]", "IC50": "1 to 500"}
{"smiles": "CN1C(=O)c2ccc(C3CCCc4c3cc(C#N)c(OCCCl)c4Cl)cc2C1=O", "note": "(stereo not drawn) [HANT-982]", "IC50": "1 to 500"}
{"smiles": "N#Cc1cc2c(c(Cl)c1OCCCl)CCCC2Nc1cncnc1", "note": "(stereo not drawn) [HANT-250]", "IC50": "1 to 500"}
{"smiles": "CN1CCc2c(cc(Cl)c(OCCCl)c2Cl)C1c1ccc(O)cc1", "note": "(stereo not drawn) [HANT-115, 4-(5,7-dichloro-6-(2-chloroethoxy)-2-methyl-1,2,3,4-tetrahydroisoquinolin-1-yl)phenol]", "IC50": "1 to 500"}
{"smiles": "N#Cc1cc2c(c(Cl)c1OCCCl)CCCC2c1cnc2[nH]ncc2c1", "note": "(stereo not drawn) [HANT-150B, 4-chloro-3-(2-chloroethoxy)-8-(1H-pyrazolo[3,4-b]pyridin-5-yl)-5,6,7,8-tetrahydronaphthalene-2-carbonitrile]", "IC50": "> 2000"}
{"smiles": "N#Cc1cc2c(c(Cl)c1OCCCl)CCCC2c1cccc2cn[nH]c12", "note": "(stereo not drawn) [HANT-194]", "IC50": "1 to 500"}
{"smiles": "N#Cc1cc2c(c(Cl)c1OCCCl)CCCC2c1cnc2[nH]c(=O)ccc2c1", "note": "(stereo not drawn) [HANT-202]", "IC50": "1 to 500"}
{"smiles": "N#Cc1cc2c(c(Cl)c1OCCCl)CCCC2c1ccc2n[nH]c(=O)n2c1", "note": "(stereo not drawn) [HANT-978]", "IC50": "1 to 500"}
